Test results from PMC11652163, “Impact of fresh grape juice on the pharmacokinetics of omeprazole: results of a food–drug interaction study” (Frontiers in Pharmacology, 2024).
Where two headings read alike, the source gives them in different places.

Columns and labels:
[1] = previously reported range; cited from earlier work
[2] = Pharmacokinetics of oral omeprazole (40 mg) alone or with fresh grape juice in healthy male volunteers, plasma HPLC-UV, non-compartmental analysis; type: in vivo, human; conditions: for AUC / Tmax / Cmax: male, human, plasma; for AUC / Cmax: 40 mg
Description: The open-label and randomized study design was used to conduct the study in normal, healthy male volunteers. All volunteers were directed not to take any type of medication, including herbal medicines, for 2 weeks prior to clinical trials. Volunteers were divided into two groups. In treatment period-I, after overnight fasting, volunteers in group A received omeprazole (40 mg) alone, and volunteers in group B, […], were administered omeprazole (40 mg) along with grape juice (≈ 250 mL) on the fourth day. […] The volunteers in group B were given omeprazole (40 mg) alone. […] Blood samples (≈ 3 mL) were collected from each volunteer before the administration of the drug, as a blank, and following the administration of the drug at 0 […], and 24 h, in EDTA blood collection tubes. […] It was then centrifuged at 5,000 rpm for 5 min at -3°C. The supernatant was removed and evaporated in a nitrogen flux and then reconstituted in the mobile phase up to 0.5 mL and stored in a refrigerator. The samples were analyzed using a validated HPLC/UV-Vis chromatographic method developed for plasma sample analysis. The plasma samples were thawed on ice at room temperature and processed for analysis using the developed method. A calibration curve was plotted for varying concentrations of omeprazole, keeping the concentration of pantoprazole constant, and used as an internal standard. […] The concentration of pantoprazole was kept at 1 μg/ml as an internal standard. The concentration of omeprazole was 1 μg/mL, 1.5 μg/mL, and 2 μg/mL, and the concentration of internal standard was 1 μg/mL. The pharmacokinetic parameters of plasma omeprazole were calculated for each individual, using non-compartmental analysis of plasma concentration-time data with the help of PK-Summit® software. Cmax, the maximum plasma concentration, and tmax, the time to reach the maximum plasma concentration, were directly calculated from the analyzed data. The terminal half-life was calculated using the equation 0.693/kel, where kel represents the value of the elimination rate constant. The area under the plasma concentration-time curve was calculated according to the trapezoidal rule over the time interval 0 to the last measurable concentration (AUC0-t) and subsequent extrapolation to time infinity (AUC0-∞). The first moment of the plasma concentration vs. time curve (AUMC) is the plasma concentration multiplied by time vs. the time curve calculated by the same trapezoidal rule. The total body clearance (CL/F) was calculated as dose/AUC0-∞. The volume of distribution was calculated by multiplying total body clearance with the mean residence time (MRT). Statistical analysis was performed by paired t-test, and the pharmacokinetic parameters of omeprazole with water were compared with the parameters obtained from omeprazole administered with grape juice.

[3] = system: H+/K+ ATPase or proton pump in parietal cells; set-up: method as in Kromer et al., 1999; conditions: ref Kromer et al., 1999; cited from earlier work
[4] = with repeated doses; cited from earlier work
[5] = Pharmacokinetics of oral omeprazole (40 mg) alone or with fresh grape juice in healthy male volunteers, plasma HPLC-UV, non-compartmental analysis; type: in vivo, human; conditions: regular intake of 250 mL grape juice for 1 week before omeprazole
[6] = set-up: method as in Dong et al., 1999; conditions: following administration of grape juice, healthy Chinese subjects; ref Dong et al., 1999; cited from earlier work

COc1ccc2[nH]c([S+]([O-])Cc3ncc(C)c(OC)c3C)nc2c1 (centres unmarked) [Omeprazole]
tmax, range already reported [1]: 2 to 3 h
AUC ([2]; oral, omeprazole 40 mg with water, read-out: AUC0 ∞): 6000 ± 1540 ng·h/mL
Tmax ([2]; oral, omeprazole 40 mg co-administered with fresh grape juice, read-out: mean time to reach the maximum plasma concentration (converted)): 2.09 h
Cmax ([2]; po, omeprazole 40 mg oral alone with water, mean): 1950 ng/mL
AUC ([2]; po, omeprazole 40 mg oral alone with water, mean, read-out: AUC0t): 5840 ng·h/mL
AUC ([2]; po, omeprazole 40 mg oral alone with water, mean, read-out: AUC0∞): 6000 ng·h/mL
AUC ([2]; po, omeprazole 40 mg oral alone with water, read-out: AUC0 t): 5840 ng·h/mL
AUC ([2]; po, omeprazole 40 mg oral alone, Table 4, read-out: AUC0∞): 6000 ng·h/mL
Cmax ([2]; po, omeprazole 40 mg oral with 250 mL fresh grape juice after prior juice intake, mean): 1020 ng/mL
AUC ([2]; po, omeprazole 40 mg oral with fresh grape juice, mean, read-out: AUC0 t): 2830 ng·h/mL
AUC ([2]; po, omeprazole 40 mg oral with fresh grape juice, mean, read-out: AUC0∞): 2910 ng·h/mL
Tmax ([2]; omeprazole 40 mg oral with fresh grape juice, mean, read-out: Tmax): 2.09 h
AUMC0∞ ([2]; omeprazole 40 mg oral alone with water, mean): 19.6 µg.hr*hr/mL
AUMC0∞ ([2]; omeprazole 40 mg oral alone, Table 4): 19.6 µg.hr*h/mL
AUMC0∞ ([2]; omeprazole 40 mg oral with fresh grape juice, mean): 10.36 µg.h*h/mL
AUMC0∞ ([2]; omeprazole 40 mg oral with grape juice, Table 4): 10.36 µg.hr*h/mL
effect of grape juice on mean value of clearance ([2]; omeprazole with grape juice versus alone): increased
Ratio (OMP + juice/OMP) of AUC0 t ([2]; with grape juice versus alone): 0.4846
Ratio (OMP + juice/OMP) of AUC0∞ ([2]; with grape juice versus alone): 0.485
Ratio (OMP + juice/OMP) of AUMC0∞ ([2]; with grape juice versus alone): 0.5286
Ratio (OMP + juice/OMP) of Cmax ([2]; with grape juice versus alone): 0.5212
Ratio (OMP + juice/OMP) of Tmax ([2]; with grape juice versus alone): 1.045
duration of inhibition of gastric acid secretion [3]: up to 36 h
increase of bioavailability [4]: up to 60%
effect of grape juice on half-life [5]: not affected

CCOc1ccc(NC(C)=O)cc1 [phenacetin]
change of AUC [6]: reduced AUC
